According to ChEMBL document CHEMBL3112509, “Synthesis and antimicrobial activity of (1,4-phenylene)bis(arylsulfonylpyrazoles and isoxazoles)” (2014):
Values after ≈ are worked out from the molar mass of the structure shown. Active and inactive are the calls of the source. No cut-off for these calls is given here.

Legend:
Format in all cases: functional
Pseudomonas aeruginosa [1] = assay: Antibacterial activity against Pseudomonas aeruginosa at 50 ug/well after 24 hrs by agar well diffusion method; details: for zone of inhibition at 50 µg/disc: read-out: DIZ
Pseudomonas aeruginosa [2] = assay: Antibacterial activity against Pseudomonas aeruginosa at 100 ug/well after 24 hrs by agar well diffusion method; details: for zone of inhibition at 100 µg/disc: read-out: DIZ
Staphylococcus aureus [3] = assay: Antibacterial activity against Staphylococcus aureus at 100 ug/well after 24 hrs by agar well diffusion method; details: for zone of inhibition at 100 µg/disc: read-out: DIZ
Aspergillus niger [4] = assay: Antifungal activity against Aspergillus niger at 50 ug/well after 48 hrs by agar well diffusion method; details: read-out: DIZ
Aspergillus niger [5] = assay: Antifungal activity against Aspergillus niger at 100 ug/well after 48 hrs by agar well diffusion method; details: read-out: DIZ
Bacillus subtilis [6] = assay: Antibacterial activity against Bacillus subtilis at 100 ug/well after 24 hrs by agar well diffusion method; details: for zone of inhibition at 100 µg/disc: read-out: DIZ
Penicillium chrysogenum [7] = assay: Antifungal activity against Penicillium chrysogenum at 100 ug/well after 48 hrs by agar well diffusion method; details: read-out: DIZ
Staphylococcus aureus [8] = assay: Antibacterial activity against Staphylococcus aureus at 50 ug/well after 24 hrs by agar well diffusion method; details: for zone of inhibition at 50 µg/disc: read-out: DIZ
Penicillium chrysogenum [9] = assay: Antifungal activity against Penicillium chrysogenum at 50 ug/well after 48 hrs by agar well diffusion method; details: read-out: DIZ
Klebsiella pneumoniae [10] = assay: Antibacterial activity against Klebsiella pneumoniae at 100 ug/well after 24 hrs by agar well diffusion method; details: for zone of inhibition at 100 µg/disc: read-out: DIZ
Klebsiella pneumoniae [11] = assay: Antibacterial activity against Klebsiella pneumoniae at 50 ug/well after 24 hrs by agar well diffusion method; details: for zone of inhibition at 50 µg/disc: read-out: DIZ
Bacillus subtilis [12] = assay: Antibacterial activity against Bacillus subtilis at 50 ug/well after 24 hrs by agar well diffusion method; details: for zone of inhibition at 50 µg/disc: read-out: DIZ
Klebsiella pneumoniae [13] = assay: Antibacterial activity against Klebsiella pneumoniae after 24 hrs by broth dilution test
Aspergillus niger [14] = assay: Antifungal activity against Aspergillus niger after 48 hrs by broth dilution test
Aspergillus niger [15] = assay: Antifungal activity against Aspergillus niger after 48 hrs
Staphylococcus aureus [16] = assay: Antibacterial activity against Staphylococcus aureus after 24 hrs
Klebsiella pneumoniae [17] = assay: Antibacterial activity against Klebsiella pneumoniae after 24 hrs
Pseudomonas aeruginosa [18] = assay: Antibacterial activity against Pseudomonas aeruginosa after 24 hrs
Penicillium chrysogenum [19] = assay: Antifungal activity against Penicillium chrysogenum after 48 hrs by broth dilution test
Staphylococcus aureus [20] = assay: Antibacterial activity against Staphylococcus aureus after 24 hrs by broth dilution test
Bacillus subtilis [21] = assay: Antibacterial activity against Bacillus subtilis after 24 hrs by broth dilution test
Penicillium chrysogenum [22] = assay: Antifungal activity against Penicillium chrysogenum after 48 hrs
Bacillus subtilis [23] = assay: Antibacterial activity against Bacillus subtilis after 24 hrs
Pseudomonas aeruginosa [24] = assay: Antibacterial activity against Pseudomonas aeruginosa after 24 hrs by broth dilution test

SMILES	diameter of the inhibition zone (DIZ) (Pseudomonas aeruginosa [1])	diameter of the inhibition zone (DIZ) (Pseudomonas aeruginosa [2])	zone of inhibition at 50 µg/disc (Aspergillus niger [4]) [mm]	zone of inhibition at 100 µg/disc (Aspergillus niger [5]) [mm]	zone of inhibition at 100 µg/disc (Penicillium chrysogenum [7]) [mm]	zone of inhibition at 50 µg/disc (Penicillium chrysogenum [9]) [mm]	zone of inhibition at 50 µg/disc (Pseudomonas aeruginosa [1]) [mm]	zone of inhibition at 100 µg/disc (Pseudomonas aeruginosa [2]) [mm]	zone of inhibition at 100 µg/disc (Staphylococcus aureus [3]) [mm]	zone of inhibition at 100 µg/disc (Bacillus subtilis [6]) [mm]	zone of inhibition at 50 µg/disc (Staphylococcus aureus [8]) [mm]	zone of inhibition at 100 µg/disc (Klebsiella pneumoniae [10]) [mm]	zone of inhibition at 50 µg/disc (Klebsiella pneumoniae [11]) [mm]	zone of inhibition at 50 µg/disc (Bacillus subtilis [12]) [mm]	other results
COc1ccc(C2=NOC(c3ccc(C4ON=C(c5ccc(OC)cc5)C4S(=O)(=O)c4ccc(C)cc4)cc3)C2S(=O)(=O)c2ccc(C)cc2)cc1 (configuration not stated)	inactive	inactive	16	19	18	15	–	–	–	–	–	–	–	–	diameter of the inhibition zone (DIZ) (Staphylococcus aureus [3]): inactive; diameter of the inhibition zone (DIZ) (Bacillus subtilis [6]): inactive; diameter of the inhibition zone (DIZ) (Staphylococcus aureus [8]): inactive; diameter of the inhibition zone (DIZ) (Klebsiella pneumoniae [10]): inactive; diameter of the inhibition zone (DIZ) (Klebsiella pneumoniae [11]): inactive; diameter of the inhibition zone (DIZ) (Bacillus subtilis [12]): inactive
O=S(=O)(c1ccccc1)c1c(-c2ccc(Cl)cc2)noc1-c1ccc(-c2onc(-c3ccc(Cl)cc3)c2S(=O)(=O)c2ccccc2)cc1	–	–	29	31	36	34	24	26	33	37	31	30	28	35	MIC (Klebsiella pneumoniae [13]): 100 µg/mL (≈ 140 µM); MIC (Aspergillus niger [14]): 50 µg/mL (≈ 70.1 µM); MFC (Aspergillus niger [15]): 200 µg/mL (≈ 280 µM); MBC (Staphylococcus aureus [16]): 200 µg/mL (≈ 280 µM); MBC (Klebsiella pneumoniae [17]): > 200 µg/mL; MBC (Pseudomonas aeruginosa [18]): 200 µg/mL (≈ 280 µM); MIC (Penicillium chrysogenum [19]): 25 µg/mL (≈ 35 µM); MIC (Staphylococcus aureus [20]): 50 µg/mL (≈ 70.1 µM); MIC (Bacillus subtilis [21]): 25 µg/mL (≈ 35 µM); MFC (Penicillium chrysogenum [22]): 100 µg/mL (≈ 140 µM); MBC (Bacillus subtilis [23]): 50 µg/mL (≈ 70.1 µM); MIC (Pseudomonas aeruginosa [24]): 50 µg/mL (≈ 70.1 µM)
COc1ccc(-c2noc(-c3ccc(-c4onc(-c5ccc(OC)cc5)c4S(=O)(=O)c4ccc(C)cc4)cc3)c2S(=O)(=O)c2ccc(C)cc2)cc1	–	–	22	24	27	25	15	17	22	27	20	18	16	25	–
COc1ccc(-c2nn(-c3ccccc3)c(-c3ccc(-c4c(S(=O)(=O)c5ccccc5)c(-c5ccc(OC)cc5)nn4-c4ccccc4)cc3)c2S(=O)(=O)c2ccccc2)cc1	–	–	20	22	25	23	12	14	19	24	17	16	15	20	–
O=S(=O)(c1ccccc1)C1C(c2ccc(Cl)cc2)=NN(c2ccccc2)C1c1ccc(C2C(S(=O)(=O)c3ccccc3)C(c3ccc(Cl)cc3)=NN2c2ccccc2)cc1 (configuration not stated)	inactive	inactive	13	15	18	15	–	–	13	14	11	12	10	12	–
